Source: US20120034613A1, “Apparatus and Method for Testing Relationships Between Gene Expression and Physical Appearance of Skin” (NSE Products, Inc., priority 2010, published 2012)

System: human equivalent skin tissue
Assay: RT-rt-PCR (TaqMan Low Density Arrays) gene expression confirmation, agent-exposed vs unexposed skin model
Type: cell-based
Details: Salicin 0.5% vs. Untreated Control, HPRT as Endogenous Control Gene
Description: Preferably this is done with the same skin model as used with the microarray technology for measuring global gene expression. The qualities of the agent (concentration, solvent, etc.) should normally be the same.
In some embodiments, the agent tested is salicin at a concentration of 0.5% salicin, available from Symrise Corporation (Teterborro, N.J.). The salicin is dissolved in water. Affymetrix microarray testing provides results for thousands of genes, whereas RT-rt-PCR testing provides results for a smaller gene group. For RT-rt-PCR testing, about 90 genes are tested at a time for this particular experimental design (other designs may test as many as 390 at a time on the equipment identified below). The experimenter may choose this number based on cost.
To implement this step, RT-rt-PCR is conducted for specific genes known to be involved in skin aging. In one embodiment Custom TaqMan® Low Density Arrays (TLDA's) were configured using Applied Biosystems validated gene expression assays. The validated gene expression assays contain a TaqMan® fluorescent probe and primers for each target gene. Genes for the TLDA cards are selected based on either, published literature describing the genes functional role in skin cell biology and aging and/or the previous Affymetrix testing results. (See Tables 1-4). Five endogenous control genes may be included on each card. Thus, when a particular gene assembly is tested with RT-rt-PCR, the data resulting may cover more than just the set of genes as in Table 3.
(High-Capacity cDNA Reverse Transcription Kits for 200 and 1000 Reactions Protocol (October, 2006)). cDNA was mixed with TaqMan® Universal Master Mix without UNG and loaded into the wells of the TLDA cards. The cards are run using an Applied Biosystems 7900HT instrument according to the manufacturer's cycling parameters.
As with the microassay, the analysis is done with a skin model exposed to the agent and a reference that is not exposed to the agent. The skin model not exposed to the agent may be used for calibration. The skin model may be human equivalent skin tissue. The target genes get normalized to a stable endogenous control (genes that are invariants in all cell types such as […]). This normalization is to account for variations that may occur during sample loading. The unexposed information gathered is used for comparison against the tested sample.
The formula for ΔCT (delta cycle threshold) is CT (target) minus CT (endogenous control gene). (ΔCT=CT (target)−CT (endogenous control gene)). The test system, data processing system 710 stores the data then uses process application modules 720 to take the CT values for both the exposed and unexposed and get a ΔΔCT value, which is reported for that specific gene in a log ratio scale. […] In one embodiment, data analysis is carried out according to the RQ analysis method using RQ Manager and StatMiner (v3.1) software programs.
At least part of the comparing of the data is performed by a computer system, such as the data processing system 710 (see FIG. 7) for performing data access and storage and various computations specified by software (process application modules 720) corresponding to the functions occurring at various described steps of this method. Additional process application modules 722 perform a parametric t-test with a Benjamini and Hochberg false discovery rate correction is performed to identify genes with a statistically significant p value equal to or less than 0.05. The up or down regulation of the gene is also identifiable from the RT-rt-PCR analysis. Results of the change in threshold cycle (ΔCT) values between the exposed and unexposed human skin tissues are calculated by a software program. The selected genes will have a cycle threshold of biological relevance. For these experiments, the selected genes have a cycle threshold of less than about <35, which is a value of biological relevance. […]

OCc1ccccc1O[C@@H]1O[C@H](CO)[C@@H](O)[C@H](O)[C@H]1O [Salicin, 2-(Hydroxymethyl)phenyl β-D-glucospyranoside]
CAT gene expression Direction: down
CAT gene expression Log10RG: −0.4768
COL4A1 gene expression Direction: up
COL4A1 gene expression Log10RG: 0.2086
DSC3 gene expression Direction: down
DSC3 gene expression Log10RG: −0.2938
DSP gene expression Direction: down
DSP gene expression Log10RG: −0.2223
FN1 gene expression Direction: up
FN1 gene expression Log10RG: 0.2411
FOXO1 gene expression Direction: up
FOXO1 gene expression Log10RG: 0.2383
IL6 gene expression Direction: up
IL6 gene expression Log10RG: 0.9322
ITGB1 gene expression Direction: up
ITGB1 gene expression Log10RG: 9.36E−02
ITGB4 gene expression Direction: down
ITGB4 gene expression Log10RG: −0.8283
KRT1 gene expression Direction: down
KRT1 gene expression Log10RG: −1.112
KRT5 gene expression Direction: down
KRT5 gene expression Log10RG: −0.445
LOR gene expression Direction: down
LOR gene expression Log10RG: −1.921
PRKCA gene expression Direction: up
PRKCA gene expression Log10RG: 0.2749
S100A8 gene expression Direction: down
S100A8 gene expression Log10RG: −0.6307
S100A9 gene expression Direction: down
S100A9 gene expression Log10RG: −0.6513
SDC1 gene expression Direction: down
SDC1 gene expression Log10RG: −0.3961
SMAD7 gene expression Direction: up
SMAD7 gene expression Log10RG: 0.2325
SOD2 gene expression Direction: up
SOD2 gene expression Log10RG: 0.3025
TNC gene expression Direction: up
TNC gene expression Log10RG: 0.1429
ITGB1 gene expression Log10RG (listed as salicin): 0.09356
